Data: paper PMC8550792, “Evolution of kinase polypharmacology across HSP90 drug discovery” (Cell Chemical Biology, 2021)

Columns and labels:
Assay in all cases: biochemical
Type in all cases: biochemical
[1] = target: T1, 382 unique human kinases (Homo sapiens, UniProt Q16832); conditions: DDR2, [ATP] 5 µM
T1 construct: purchased Reaction Biology (HotSpot contract assay)
T1 sequence (Q16832 22-855): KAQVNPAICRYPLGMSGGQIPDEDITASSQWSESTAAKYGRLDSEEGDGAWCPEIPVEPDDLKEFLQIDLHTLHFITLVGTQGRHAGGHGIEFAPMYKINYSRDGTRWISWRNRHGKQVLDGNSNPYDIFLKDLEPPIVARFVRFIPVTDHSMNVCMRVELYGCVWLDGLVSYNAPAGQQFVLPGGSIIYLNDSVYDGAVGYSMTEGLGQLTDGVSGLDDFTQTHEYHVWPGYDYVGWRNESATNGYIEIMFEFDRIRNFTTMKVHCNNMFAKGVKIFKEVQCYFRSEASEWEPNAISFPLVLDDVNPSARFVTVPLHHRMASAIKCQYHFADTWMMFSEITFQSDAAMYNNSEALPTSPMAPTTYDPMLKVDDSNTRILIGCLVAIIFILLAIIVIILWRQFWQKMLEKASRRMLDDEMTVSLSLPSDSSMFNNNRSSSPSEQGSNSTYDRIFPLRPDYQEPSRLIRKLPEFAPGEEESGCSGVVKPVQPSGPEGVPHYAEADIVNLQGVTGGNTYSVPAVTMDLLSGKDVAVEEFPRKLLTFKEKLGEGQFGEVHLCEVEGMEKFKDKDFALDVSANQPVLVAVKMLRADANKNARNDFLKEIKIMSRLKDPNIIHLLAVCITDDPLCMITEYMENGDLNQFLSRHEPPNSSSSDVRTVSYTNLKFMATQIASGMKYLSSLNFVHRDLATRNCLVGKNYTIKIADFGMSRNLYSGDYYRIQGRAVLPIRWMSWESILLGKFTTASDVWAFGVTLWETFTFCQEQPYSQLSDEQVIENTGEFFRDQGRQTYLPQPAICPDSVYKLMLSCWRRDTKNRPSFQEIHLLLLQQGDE

[2] = target: T2, 382 unique human kinases (Homo sapiens, UniProt P04629); conditions: TRKA, [ATP] 100 µM, compound 10 uM; for remaining activity at 10 µM: read-out: % Enzyme Activity (relative to DMSO controls)
T2 construct: purchased Reaction Biology (HotSpot contract assay)
T2 sequence (P04629 33-796): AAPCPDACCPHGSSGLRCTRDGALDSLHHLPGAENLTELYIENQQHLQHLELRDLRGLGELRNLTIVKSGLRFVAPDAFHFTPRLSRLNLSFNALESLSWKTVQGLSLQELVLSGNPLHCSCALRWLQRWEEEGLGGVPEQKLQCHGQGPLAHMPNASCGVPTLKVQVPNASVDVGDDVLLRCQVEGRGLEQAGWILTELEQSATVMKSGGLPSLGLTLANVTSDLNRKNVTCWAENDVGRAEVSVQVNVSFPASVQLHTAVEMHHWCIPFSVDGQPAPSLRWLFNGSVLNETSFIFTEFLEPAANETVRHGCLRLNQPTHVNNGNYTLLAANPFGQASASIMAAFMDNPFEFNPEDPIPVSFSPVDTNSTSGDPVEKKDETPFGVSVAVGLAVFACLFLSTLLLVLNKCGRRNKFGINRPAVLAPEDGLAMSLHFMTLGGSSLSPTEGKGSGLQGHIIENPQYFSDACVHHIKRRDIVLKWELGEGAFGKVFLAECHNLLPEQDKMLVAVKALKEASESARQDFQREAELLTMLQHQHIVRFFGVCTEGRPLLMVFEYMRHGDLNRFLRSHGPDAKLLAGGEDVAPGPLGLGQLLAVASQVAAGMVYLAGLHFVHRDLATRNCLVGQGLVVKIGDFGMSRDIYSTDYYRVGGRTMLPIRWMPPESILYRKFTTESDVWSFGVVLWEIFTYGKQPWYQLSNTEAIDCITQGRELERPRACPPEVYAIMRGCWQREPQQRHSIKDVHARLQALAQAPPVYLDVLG

[3] = target: T3, 382 unique human kinases (Homo sapiens, UniProt P42684); conditions: ABL2/ARG, [ATP] 30 µM
T3 construct: purchased Reaction Biology (HotSpot contract assay)
T3 sequence (P42684 whole entry): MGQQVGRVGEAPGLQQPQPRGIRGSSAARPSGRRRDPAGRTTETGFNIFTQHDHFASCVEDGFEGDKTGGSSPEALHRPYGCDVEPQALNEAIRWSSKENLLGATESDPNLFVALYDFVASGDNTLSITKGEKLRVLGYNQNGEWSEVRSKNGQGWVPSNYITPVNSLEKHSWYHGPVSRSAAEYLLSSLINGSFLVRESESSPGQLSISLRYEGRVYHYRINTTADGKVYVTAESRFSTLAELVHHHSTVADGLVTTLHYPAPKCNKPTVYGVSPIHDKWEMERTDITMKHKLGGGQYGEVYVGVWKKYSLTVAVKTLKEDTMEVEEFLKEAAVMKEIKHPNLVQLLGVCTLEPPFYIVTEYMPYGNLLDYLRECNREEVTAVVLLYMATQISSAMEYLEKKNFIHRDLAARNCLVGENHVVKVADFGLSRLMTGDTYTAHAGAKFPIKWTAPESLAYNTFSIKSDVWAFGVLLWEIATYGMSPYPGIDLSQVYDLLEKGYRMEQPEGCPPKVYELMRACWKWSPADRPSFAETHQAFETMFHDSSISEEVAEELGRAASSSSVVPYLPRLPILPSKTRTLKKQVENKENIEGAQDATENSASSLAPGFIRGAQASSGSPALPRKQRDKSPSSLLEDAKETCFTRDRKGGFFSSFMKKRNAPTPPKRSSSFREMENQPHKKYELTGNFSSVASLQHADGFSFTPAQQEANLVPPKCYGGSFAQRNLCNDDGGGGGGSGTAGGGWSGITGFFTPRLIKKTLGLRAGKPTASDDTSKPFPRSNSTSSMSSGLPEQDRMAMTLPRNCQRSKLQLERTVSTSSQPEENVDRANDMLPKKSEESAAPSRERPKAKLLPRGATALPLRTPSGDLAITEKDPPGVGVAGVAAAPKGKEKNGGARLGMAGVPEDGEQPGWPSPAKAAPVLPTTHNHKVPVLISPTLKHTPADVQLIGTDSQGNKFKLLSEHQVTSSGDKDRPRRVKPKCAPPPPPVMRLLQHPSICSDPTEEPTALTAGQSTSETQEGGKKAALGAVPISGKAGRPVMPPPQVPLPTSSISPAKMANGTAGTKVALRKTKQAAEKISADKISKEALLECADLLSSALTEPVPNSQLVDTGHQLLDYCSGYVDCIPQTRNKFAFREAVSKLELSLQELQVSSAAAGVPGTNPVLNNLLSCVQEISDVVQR

[4] = target: T4, 382 unique human kinases (Homo sapiens, UniProt P12931, T341M); conditions: kinase c-Src (T341M), compound 10 uM; for remaining activity at 10 µM: read-out: % Enzyme Activity (relative to DMSO controls)
T4 construct: purchased Reaction Biology (HotSpot contract assay)

[5] = target: T5, 382 unique human kinases (Homo sapiens, UniProt P08581, D1228N); conditions: c-MET (D1228N), compound at 10 uM, duplicate values; for remaining activity at 10 µM: read-out: % Enzyme Activity (relative to DMSO controls)
T5 construct: purchased Reaction Biology (HotSpot contract assay)

[6] = target: T6, 382 unique human kinases (Homo sapiens, UniProt P22455, V550M); conditions: FGFR4 (V550M), 10 uM; for remaining activity at 10 µM: read-out: % Enzyme Activity (relative to DMSO controls)
T6 construct: purchased Reaction Biology (HotSpot contract assay)
T6 sequence (P22455 22-802 V550M): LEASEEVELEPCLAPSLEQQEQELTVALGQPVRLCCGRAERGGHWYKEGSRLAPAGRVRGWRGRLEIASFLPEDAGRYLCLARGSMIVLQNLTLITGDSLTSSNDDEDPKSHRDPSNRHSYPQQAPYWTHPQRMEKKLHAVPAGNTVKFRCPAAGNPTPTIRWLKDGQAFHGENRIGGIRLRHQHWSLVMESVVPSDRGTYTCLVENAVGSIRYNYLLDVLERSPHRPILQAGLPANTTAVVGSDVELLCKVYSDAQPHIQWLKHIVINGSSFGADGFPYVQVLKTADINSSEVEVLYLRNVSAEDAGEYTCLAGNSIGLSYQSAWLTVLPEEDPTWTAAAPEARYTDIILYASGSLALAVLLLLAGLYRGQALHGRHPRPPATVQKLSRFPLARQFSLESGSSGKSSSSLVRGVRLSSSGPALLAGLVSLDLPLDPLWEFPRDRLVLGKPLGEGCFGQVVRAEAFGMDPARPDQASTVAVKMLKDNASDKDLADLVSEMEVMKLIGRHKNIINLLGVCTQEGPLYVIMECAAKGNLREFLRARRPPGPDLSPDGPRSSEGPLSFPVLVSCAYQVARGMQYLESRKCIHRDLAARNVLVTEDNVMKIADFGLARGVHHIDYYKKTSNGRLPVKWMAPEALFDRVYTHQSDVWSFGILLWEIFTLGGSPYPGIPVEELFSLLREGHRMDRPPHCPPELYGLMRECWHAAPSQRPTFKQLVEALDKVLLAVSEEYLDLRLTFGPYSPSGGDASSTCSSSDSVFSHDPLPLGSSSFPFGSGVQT

[7] = target: T7, 382 unique human kinases (Homo sapiens, UniProt P21802, N549H); conditions: kinase FGFR2 (N549H), compound 10 uM; for remaining activity at 10 µM: read-out: % Enzyme Activity (relative to DMSO controls)
T7 construct: purchased Reaction Biology (HotSpot contract assay)
T7 sequence (P21802 22-821 N549H): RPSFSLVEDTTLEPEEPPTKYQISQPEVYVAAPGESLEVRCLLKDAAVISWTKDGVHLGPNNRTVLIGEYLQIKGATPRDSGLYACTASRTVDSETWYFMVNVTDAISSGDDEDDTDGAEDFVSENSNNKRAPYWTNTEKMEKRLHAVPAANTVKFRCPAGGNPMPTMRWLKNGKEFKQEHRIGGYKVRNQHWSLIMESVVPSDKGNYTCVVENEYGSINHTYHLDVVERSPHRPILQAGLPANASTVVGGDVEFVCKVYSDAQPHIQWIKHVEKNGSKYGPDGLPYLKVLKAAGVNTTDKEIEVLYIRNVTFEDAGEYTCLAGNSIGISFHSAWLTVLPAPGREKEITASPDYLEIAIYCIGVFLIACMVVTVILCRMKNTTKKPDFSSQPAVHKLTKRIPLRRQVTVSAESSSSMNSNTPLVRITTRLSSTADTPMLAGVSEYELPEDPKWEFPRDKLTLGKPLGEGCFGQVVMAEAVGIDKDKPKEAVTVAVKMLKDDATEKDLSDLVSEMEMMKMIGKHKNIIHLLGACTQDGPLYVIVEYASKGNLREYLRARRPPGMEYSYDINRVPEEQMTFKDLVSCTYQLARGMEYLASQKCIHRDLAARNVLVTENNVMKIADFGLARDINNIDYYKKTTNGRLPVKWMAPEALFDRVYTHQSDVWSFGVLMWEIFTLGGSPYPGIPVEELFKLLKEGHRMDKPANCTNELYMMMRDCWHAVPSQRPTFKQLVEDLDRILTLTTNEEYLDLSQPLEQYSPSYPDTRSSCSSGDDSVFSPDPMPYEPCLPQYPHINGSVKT

[8] = target: T8, 382 unique human kinases (Homo sapiens, UniProt P42680); conditions: TEC, 10 uM; for remaining activity at 10 µM: read-out: % Enzyme Activity (relative to DMSO controls)
T8 construct: purchased Reaction Biology (HotSpot contract assay)
T8 sequence (P42680 1-631): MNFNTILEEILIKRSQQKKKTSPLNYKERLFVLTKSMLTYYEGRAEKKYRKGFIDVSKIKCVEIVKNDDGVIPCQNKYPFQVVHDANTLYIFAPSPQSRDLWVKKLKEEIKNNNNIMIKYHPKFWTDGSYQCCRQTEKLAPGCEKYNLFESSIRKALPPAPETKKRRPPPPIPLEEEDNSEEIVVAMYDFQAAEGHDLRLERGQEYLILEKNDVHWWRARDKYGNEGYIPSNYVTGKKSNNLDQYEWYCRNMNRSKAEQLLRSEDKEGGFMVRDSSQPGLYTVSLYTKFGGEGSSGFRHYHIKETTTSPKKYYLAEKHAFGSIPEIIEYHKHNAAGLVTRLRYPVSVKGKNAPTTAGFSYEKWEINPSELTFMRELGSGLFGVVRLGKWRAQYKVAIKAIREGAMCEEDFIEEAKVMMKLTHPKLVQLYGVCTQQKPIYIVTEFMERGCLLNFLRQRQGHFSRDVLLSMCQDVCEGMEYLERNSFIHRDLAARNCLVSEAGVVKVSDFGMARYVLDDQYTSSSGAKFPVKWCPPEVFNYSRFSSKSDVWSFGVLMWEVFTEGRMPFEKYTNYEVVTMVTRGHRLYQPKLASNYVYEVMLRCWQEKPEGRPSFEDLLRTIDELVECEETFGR

[9] = compound 10 uM, read-out: % Enzyme Activity (relative to DMSO controls)
[10] = compound 1 uM, read-out: % Enzyme Activity (relative to DMSO controls)

Row | Compound | % Enzyme Activity (relative to DMSO controls) ([1]; compound 10 uM) [%] | remaining activity at 10 µM [1, 9] [%] | % Enzyme Activity (relative to DMSO controls) [2] [%] | remaining activity at 10 µM [2] [%] | % Enzyme Activity (relative to DMSO controls) ([3]; compound 10 uM) [%] | remaining activity at 10 µM [3, 9] [%] | remaining activity at 10 µM [4] [%] | remaining activity at 10 µM [5] [%] | remaining activity at 10 µM [6] [%] | remaining activity at 10 µM [7] [%] | remaining activity at 10 µM [8] [%] | % Enzyme Activity (relative to DMSO controls) [4] [%] | % Enzyme Activity (relative to DMSO controls) [5] [%] | % Enzyme Activity (relative to DMSO controls) [6] [%] | % Enzyme Activity (relative to DMSO controls) [7] [%] | % Enzyme Activity (relative to DMSO controls) [8] [%] | remaining activity at 1 µM [1, 10] [%] | remaining activity at 1 µM [3, 10] [%]
1 | CCNC(=O)c1noc(-c2cc(C(C)C)c(O)cc2O)c1-c1ccc(CN2CCOCC2)cc1 [Luminespib] | 105.89 | 107 | 101.35 | 101 | 7.82 | 8.16 |  |  |  |  |  |  |  |  |  |  |  | 
2 | CC(C)c1cc(-c2n[nH]c(=O)n2-c2ccc3c(ccn3C)c2)c(O)cc1O [Ganetespib (STA9090)] |  |  |  |  |  |  | 86.3 | 108 | 85.2 | 79.3 | 59.7 |  |  |  |  |  |  | 
3 | CCNC(=O)c1noc(-c2cc(C(C)C)c(O)cc2O)c1-c1ccc(CN2CCOCC2)cc1 [Luminespib (AUY-922)] |  |  |  |  |  |  | 98.3 | 107 | 72.2 | 107 | 97.9 | 97.19 | 105.32 | 64.75 | 106.42 | 96.94 |  | 
4 | CC(C)c1cc(-c2n[nH]c(=O)n2-c2ccc3c(ccn3C)c2)c(O)cc1O [Ganetespib] |  | 14.5 |  | 52.8 |  | 1.12 |  |  |  |  |  |  |  |  |  |  | 51.9 | 12.9
